In patent publication EP1724268A1, “COMPOUND HAVING TGF-BETA INHIBITORY ACTIVITY AND PHARMACEUTICAL COMPOSITION CONTAINING SAME” (KIRIN BEER KABUSHIKI KAISHA, priority 2004, dated 2005):

Tested on: TGFβ signal
Experiment: TGFβ signal inhibitory activity, (SBE)4-Luc reporter in A549 cells (Test Examples 1A and 1B)
Assay type: cell-based, human
Details: Homo sapiens, A549, TGFβ-1 2 ng/ml, 4 hr, Table 1A, read-out: TGFβ inhibition rate, %; for inhibition at 1 µM: test compound 1 µM; for inhibition at 3 µM: test compound 3 µM; for inhibition at 10 µM: test compound 10 µM
Protocol: Test Example 1A: TGFβ signal inhibitory activity (in vitro test) The compounds according to the present invention was evaluated for TGFβ signal inhibitory activity according to the method described in J. Boil .Chem., 273, 21145-21152 (1998). Specifically, a plasmid having four tandem binding sequences of Smad3, a TGF-beta signal transducer, to the upstream of a luciferases gene were used as a reporter plasmid ((SBE)4-Luc) to detect TGF-beta signal, This reporter gene was introduced into human pulmonary carcinoma epithelial cells (A549) (available from ATCC) to establish a stable cell line. A test compound and TGFβ-1 (2 ng/ ml) were added to the cells, and the mixture was cultured for 4 hr. In this case, the compounds according to the present invention synthesized in the Examples were used as the test compound. After the culture, the luciferase activity of the cells were measured by chemiluminescence (Steady Glo (trademark) luciferase assay system, available from Promega). Likewise, the luciferase activity was measured as a control against the culture of cells with the addition of TGFβ only and the culture of cells without the addition of both TGFβ and the test compound.
The TGFβ inhibition (%) was calculated by the following equation, based on the measurement results. TGFβ inhibition(%) = (A-B)/(A-C) × 100 [formula] wherein • A: luciferase activity with the addition of TGFβ1 and without the addition of test compound (relative luciferase unit), • B: luciferase activity with the addition of both TGFβ1 and test compound (relative luciferase unit), and • C: luciferase activity without the addition of both TGFβ1 and test compound (relative luciferase unit).
The test was carried out for each of test compound at the concentrations of 3 µM and 10 µM. For certain test compounds, the test was further carried out for test compound at the concentration of 1 µM.
For the compounds of Reference Examples, the TGFβ signal inhibitory activity was evaluated in the same manner as in Test Example 1A.

| Structure (SMILES) | inhibition at 1 µM | inhibition at 3 µM | inhibition at 10 µM |
| --- | --- | --- | --- |
| COc1ccc2c(Oc3cc(C)c(C)nc3-c3ccccn3)ccnc2c1 [Compound 16, 3-(7-Methoxy-quinolin-4-yloxy)-5,6-dimethyl-[2,2']bipyridine] | 97% | 100% |  |
| Cc1cc(Oc2ccnc3cc(-c4ccccc4)ccc23)c(-c2ccccn2)nc1C [Compound 17, 5,6-Dimethyl-3-(7-phenyl-quinolin-4-yloxy)-[2,2']bipyridine] |  | 98% | 100% |
| Cc1cc(Oc2ccnc3cc(-c4cccnc4)ccc23)c(-c2ccccn2)nc1C [Compound 18, 5,6-Dimethyl-3-(7-pyridin-3-yl-quinolin-4-yloxy)-[2,2']bipyridine] |  | 95% | 100% |
| Cc1cc(Oc2ccnc3cc(-c4ccncc4)ccc23)c(-c2ccccn2)nc1C [Compound 19, 5,6-Dimethyl-3-(7-pyridin-4-yl-quinolin-4-yloxy)-[2,2']bipyridine] |  | 100% | 100% |
| Cc1ccc(-c2ccc3c(Oc4cc(C)c(C)nc4-c4ccccn4)ccnc3c2)cc1 [Compound 20, 5,6-Dimethyl-3-(7-p-tolyl-quinolin-4-yloxy)-[2,2']bipyridine] |  | 90% | 100% |
| Cc1cc(Oc2ccnc3cc(-c4cccc(N)c4)ccc23)c(-c2ccccn2)nc1C [Compound 21, 3-[4-(5,6-Dimethyl-[2,2']bipyridin-3-yloxy)-quinolin-7-yl]-phenylamine] |  | 99% | 100% |
| COc1cc2nccc(Oc3cc(C)c(C)nc3-c3ccccn3)c2cc1C(N)=O [Compound 22, 4-(5,6-Dimethyl-[2,2']bipyridin-3-yloxy)-7-methoxy-quinoline-6-carboxylic acid amide] | 81% | 99% |  |
| Cc1cc(Oc2ncnc3ccccc23)c(-c2ccccn2)nc1C [Compound 23, 4-(5,6-Dimethyl-[2,2']bipyridinyl-3-yloxy)-quinazoline] |  | 78% | 98% |
| Cc1cc(Oc2ncnc3ccc(Cl)cc23)c(-c2ccccn2)nc1C [Compound 24, 6-Chloro-4-(5,6-dimethyl-[2,2']bipyridin-3-yloxy)-quinazoline] |  | 90% | 99% |
| Cc1cc(Oc2ncnc3ccc(Br)cc23)c(-c2ccccn2)nc1C [Compound 25, 6-Bromo-4-(5,6-dimethyl-[2,2']bipyridin-3-yloxy)-quinazoline] |  | 89% | 99% |
| COc1ccc2ncnc(Oc3cc(C)c(C)nc3-c3ccccn3)c2c1 [Compound 26, 4-(5,6-Dimethyl-[2,2']bipyridin-3-yloxy)-6-methoxy-quinazoline] |  | 83% | 99% |
| COc1cc2ncnc(Oc3cc(C)c(C)nc3-c3ccccn3)c2cc1OC [Compound 27, 4-(5,6-Dimethyl-[2,2']bipyridin-3-yloxy)-6,7-dimethoxy-quinazoline] | 89% | 100% |  |
| Cc1cc(Oc2ccnc3ccsc23)c(-c2ccccn2)nc1C [Compound 28, 5,6-Dimethyl-3-(thieno[3,2-b]pyridin-7-yloxy)-[2,2']bipyridine] | 96% | 100% |  |
| Cc1cc(Oc2ccnc3cc(-c4ccccc4)sc23)c(-c2ccccn2)nc1C [Compound 29, 5,6-Dimethyl-3-(2-phenyl-thieno[3,2-b]pyridin-7-yloxy)-[2,2']bipyridine] | 89% | 100% |  |
| Cc1cc(Oc2ccnc3cccnc23)c(-c2ccccn2)nc1C [Compound 30, 4-(5,6-Dimethyl-[2,2']bipyridin-3-yloxy)-[1,5]naphthyridine] |  | 84% | 99% |
| Cc1cc(Oc2ccnc3ccncc23)c(-c2ccccn2)nc1C [Compound 31, 4-(5,6-Dimethyl-[2,2']bipyridin-3-yloxy)-[1,6]naphthyridine] |  | 85% | 99% |
| Cc1cc(Oc2ncnc3sccc23)c(-c2ccccn2)nc1C [Compound 32, 5,6-Dimethyl-3-(thieno[2,3-d]pyrimidin-4-yloxy)-[2,2']bipyridine] |  | 64% | 94% |
| Cc1cc(Oc2ncnc3ccsc23)c(-c2ccccn2)nc1C [Compound 33, 5,6-Dimethyl-3-(thieno[3,2-d]pyrimidin-4-yloxy)-[2,2']bipyridine] |  | 86% | 99% |

| Structure (SMILES) | inhibition at 1 µM | inhibition at 3 µM | inhibition at 10 µM |
| --- | --- | --- | --- |
| Cc1cc(Oc2ncnc3scc(C)c23)c(-c2ccccn2)nc1C [Compound 34, 5,6-Dimethyl-3-(5-methyl-thieno[2,3-d]pyrimidin-4-yloxy)-[2,2'] bipyridine] |  | 94% | 100% |
| Cc1cc(Oc2ncnc3sc(C)c(C)c23)c(-c2ccccn2)nc1C [Compound 35, 3-(5,6-Dimethyl-thieno[2,3-d]pyrimidin-4-yloxy)-5,6-dimethyl-[2,2']bipyridine] |  | 95% | 100% |
| CCc1ccc(Oc2ccnc3cc(OC)c(OC)cc23)c(-c2ccccn2)n1 [Compound 37, 3-(6,7-Dimethoxy-quinolin-4-yloxy)-6-ethyl-[2,2']bipyridine] | 98% | 100% |  |
| Cc1ccc(-c2nc(C)c(C)cc2Oc2ncnc3ccccc23)nc1 [Compound 38, 4-(5,6,5'-Trimethyl-[2,2']bipyridin-3-yloxy)-quinazoline] |  | 45% | 89% |
| COc1ccc2ncnc(Oc3cc(C)c(C)nc3-c3ccc(C)cn3)c2c1 [Compound 39, 6-Methoxy-4-(5,6,5'-trimethyl-[2,2']bipyridin-3-yloxy)-quinazoline] |  | 88% | 99% |
| COc1cc2ncnc(Oc3cc(C)c(C)nc3-c3cccc(C)n3)c2cc1OC [Compound 41, 6,7-Dimethoxy-4-(5,6,6'-trimethyl-[2,2']bipyridin-3-yloxy)-quinazoline] |  | 66% | 98% |
| Cc1cc(Oc2ccnc3ccccc23)c(-c2cccnc2)nc1C [Compound 43, 5,6-Dimethyl-3-(quinolin-4-yloxy)-[2,3']bipyridine] | 45% | 84% |  |
| COc1cc2nccc(Oc3cc(C)c(C)nc3-c3cccnc3C)c2cc1OC [Compound 44, 3-(6,7-Dimethoxy-quinolin-4-yloxy)-5,6,2'-trimethyl-[2,3']bipyridine] |  | 82% | 99% |
| COc1cncc(-c2nc(C)c(C)cc2Oc2ccnc3cc(OC)c(OC)cc23)c1 [Compound 45, 3-(6,7-Dimethoxy-quinolin-4-yloxy)-5'-methoxy-5,6-dimethyl-[2,3']bipyridine] |  | 89% | 100% |
| CCc1ccc(Oc2ccnc3cc(OC)c(OC)cc23)c(-c2cccnc2)n1 [Compound 46, 3-(6,7-Dimethoxy-quinolin-4-yloxy)-6-ethyl-[2,3']bipyridine] |  | 100% | 100% |
| COc1cc2ncnc(Oc3cc(C)c(C)nc3-c3cccnc3)c2cc1OC [Compound 48, 4-(5,6-Dimethyl-[2,3']bipyridinyl-3-yloxy)-6,7-dimethoxy-quinazoline] | 28% | 64% |  |
| Cc1cc(Oc2ccnc3ccccc23)c(-c2ncccn2)nc1C [Compound 49, 4-(5,6-Dimethyl-2-pyrimidin-2-yl-pyridin-3-yloxy)-quinoline] |  | 97% | 100% |
| COc1cc2ncnc(Oc3cc(C)c(C)nc3-c3ncccn3)c2cc1OC [Compound 51, 4-(5,6-Dimethyl-2-pyrimidin-2-yl-pyridin-3-yloxy)-6,7-dimethoxy-quinazoline] |  | 93% | 100% |
| c1ccc(-c2nc3ncccc3cc2Oc2ccnc3ccccc23)cc1 [Compound 52, 2-Phenyl-3-(quinolin-4-yloxy)-[1,8]naphthyridine] |  | 96% | 100% |
| Fc1ccc2nccc(Oc3cc4cccnc4nc3-c3ccccc3)c2c1 [Compound 53, 3-(6-Fluoro-quinolin-4-yloxy)-2-phenyl-[1,8]naphthyridine] | 43% | 83% |  |
| FC(F)(F)c1ccc2nccc(Oc3cc4cccnc4nc3-c3ccccc3)c2c1 [Compound 54, 2-Phenyl-3-(6-trifluoromethyl-quinolin-4-yloxy)-[1,8]naphthyridine] |  | 76% | 99% |
| COc1ccc2nccc(Oc3cc4cccnc4nc3-c3ccccc3)c2c1 [Compound 55, 3-(6-Methoxy-quinolin-4-yloxy)-2-phenyl-[1,8]naphthyridine] |  | 94% | 100% |
